The record followed here is article PMC11118832 (Biomolecules, 2024).

For one data set, the target named is T1, PD-1/PD-L1 (Homo sapiens, UniProt Q15116).
T1 construct: this kit uses ectodomains of PD-1 and PD-L1 that are expressed with orthogonal fusion tags (Tag-1 and Tag-2); purchased CisBio (currently Perkin-Elmer, Bedford, MA)
Description: In vitro time-resolved FRET PD-1/PD-L1 binding assay (CisBio kit). The settings on record: CisBio PD-1/PD-L1 binding kit, TR FRET, 96-well; for EC50: serial dilutions in triplicate, NI = no inhibition at maximum concentration tested (* 5 μM, ** 50 μM), read-out: EC50 (Supplementary Table S1; inhibition of PD-1/PD-L1 binding by in vitro TR-FRET assay). The method, boiled down:
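Tagged PD-1 and PD-L1 ectodomains were detected with donor- and acceptor-labeled anti-tag antibodies; complex formation gives a time-resolved FRET signal. Freshly dissolved peptides were tested in triplicate 4-fold serial dilutions, with no-peptide and no-protein wells as controls. IC50 is the concentration reducing TR-FRET by 50%.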

The conditions of data set [1]: pH 6.4.
Description: We ran chemical shift mapping (CSM) experiments for four peptides, B5.11, B3.15, B5.6, and B2.22. […] CSM ^15N-HSQC experiments with unlabeled peptides (B5.11, B3.15, and B5.6) were performed on uniformly ^15N-labeled PD-1 in a buffer (two series, pH 6.4 and 6.7) containing 25 mM NaPO4, 100 mM NaCl, 1 mM DSS, 10% D2O, and 3% dDMSO (necessary to make peptides stocks). Spectra were recorded at 25 °C on a Varian INOVA 600 MHz spectrometer equipped with an inverse triple-resonance cold probe. Spectra were processed using NMRPipe (11.2 rev 2022.346.12.26) [35] and analyzed with CCPN Analysis [36] made available through NMRBox. Assignments for PD-1 were adopted from BMRB-18908. The chemical shift perturbations were calculated using the following equation [37]: Δδ=0.5(δ^2H+(αδN)^2) where the scaling factor, α, was set to 0.15.

Square brackets hold non-standard residues; d marks the D form. Peptide text beside a SMILES is read from it. hLeu = CC(C)CC[C@H](N)C(=O)O

Ac-LVIVGAAWDYKY-NH2 [B2.22]: on PD-1/PD-L1 (4-fold serial dilutions in triplicate, freshly dissolved peptides, read-out: IC50, inhibition of PD-1/PD-L1 binding (TR FRET assay)), the IC50 stood at 0.7 µM. The EC50 at PD-1/PD-L1 was 0.7 µM. In data set [1], the “Solubility / precipitation in NMR buffer” value is “too hydrophobic and precipitated totally out of the solution”.

`CC(=O)N[C@@H](CCCNC(=N)N)C(=O)N[C@H](C(=O)N[C@@H](CCC(C)C)C(=O)N[C@H](C(=O)N[C@@H](CCC(C)C)C(=O)N[C@H](C(=O)NCC(=O)N[C@@H](C)C(=O)N[C@@H](C)C(=O)N[C@@H](Cc1c[nH]c2ccccc12)C(=O)N[C@@H](CC(=O)O)C(=O)N[C@@H](Cc1ccc(O)cc1)C(=O)N[C@@H](CCCCN)C(=O)N[C@@H](Cc1ccc(O)cc1)C(N)=O)C(C)C)C(C)C)C(C)C` [B2.27] (Ac-RV[hLeu]V[hLeu]VGAAWDYKY-NH2): the EC50 at PD-1/PD-L1 was 1.8 µM. Same read-out and setting: for Ac-LVIVGPAWDYKY-NH2 [B3.9] the value was 8.5 µM.
